Patent US20220202811A1, “TREATMENT FOR RETINOIC ACID RECEPTOR-RELATED ORPHAN RECEPTOR Ɣ (RORƔ)-DEPENDENT CANCERS” (The Regents of the University of California, priority 2019, published 2022)

Legend:
[1] = tested on: human PDAC cells; assay: human PDAC (FG) flank tumors in immunocompromised mice; format: in vivo; details: compared to vehicle-treatment
Protocol: Subcutaneous tumor dimensions were measured with calipers 1-2× weekly.

[2] = tested on: autochthonous tumor-bearing KP^f/fC mice; assay: autochthonous KP^f/fC survival study
[3] = tested on: Msi2-reporter+ stem cells; assay: live imaging of REM2-KP^f/fC tumors; format: in vivo, mouse
Protocol: For imaging, mice were anesthetized by intraperitoneal injection of ketamine and xylazine (100/20 mg/kg). In order to visualize blood vessels and nuclei, mice were injected retro-orbitally with AlexaFluor 647 anti-mouse CD144 (VE-cadherin) antibody and Hoechst 33342 immediately following anesthesia induction. After 25 minutes, pancreatic tumors were removed and placed in HBSS containing 5% FBS and 2 mM EDTA. 80-150 μm images in 1024×1024 format were acquired with an HCX APO L20× objective on an upright Leica SP5 confocal system using Leica LAS AF 1.8.2 software. GFP cluster sizes were measure using ImageJ 1.51s software. 2 mice per treatment group were analyzed in this study; 6-10 frames were analyzed per mouse.

[4] = tested on: organoids derived from acinar tumors; assay: acinar tumor organoids (Msi2-Cre^ER/LSL-Myc); format: cell-based, mouse
Text: (§1) A new Msi2-Cre^ER mouse model of aggressive pancreatic cancer was created, in which Cre is driven off of the Msi2 promoter and can be conditionally triggered by tamoxifen delivery. This Msi2-Cre^ER driver can be crossed into mice bearing distinct mutations such as Ras (leading to myeloproliferative neoplasia), p53, or Myc. When the Msi2-Cre^ER driver was crossed into an LSL-MyC^T58A model developed by Dr. Robert Wechsler-Reya at SBP/Rady, La Jolla, Calif. (Mollaoglu et al., 2017) (FIG. 79), it produced multiple cancer types including small cell lung cancer, choroid plexus tumors, and early stage kidney tumors.

[5] = tested on: organoids derived from adenosquamous tumors; assay: adenosquamous tumor organoids (Msi2-Cre^ER/LSL-Myc); format: cell-based, mouse
Text: as §1

[6] = tested on: primary patient-derived PDX204 pancreatic cancer cells; assay: PDX204 organoid assay; format: cell-based, human
Protocol: Moreover, the anti-cancer effect of JTE-151 was determined in an organoid assay using pancreatic cancer cells derived from mice bearing primary patient-derived xenografts.

[7] = tested on: PDX1535 xenograft; assay: PDX1535 xenografts in mice; format: in vivo, human; details: JTE-151 90 mg/kg once per day
Text: (§2) Finally, the impact of JTE-151 was examined in vivo on mice bearing primary patient-derived pancreatic cancer xenografts (FIGS. 70-78). […] FIGS. 70-72 show 3 rounds of treatment in an experiment using mice bearing PDX1356 xenographs. The horizontal axis of the first panel in each of FIGS. 70-72 represents days of treatment, and the vertical axis represents tumor volume. The horizontal axis of each of the remaining panels represents the target (vehicle vs. JTE-151 mouse), and the vertical axis represents the specified measurement. JTE-151 was given at the regimen as specified in the figures. For example, in the first round (FIG. 70), JTE-151 was given at 90 mg/kg body weight once per day for the first 25 days, then twice per day from day 26 though day 40.
Two other primary patient-derived xenografts, PDX1535 (FIGS. 74 and 75) and PDX1424 (FIGS. 76 and 77), were tested using JTE-151 at 90 mg/kg once per day. […] Considering the reduced tumor mass and cell numbers, the absence of a significant change in tumor volume may be due to necrotic cells that remained for a while post drug treatment.

[8] = tested on: PDX1356 xenografts; assay: PDX1356 xenografts in mice; format: in vivo, human
Text: as §2

[9] = tested on: tumor-bearing KP^f/fC mice; assay: tumor-bearing KP^f/fC mice in vivo (AZD-0284, JTE-151); design: species or system mouse
Protocol: Next, the impact of JTE-151 was tested on tumor-bearing KP^f/fC mice in vivo. FIG. 51 is a schematic of the experimental design. KP^f/fC mice were allowed to develop tumors, then the tumor-bearing mice received vehicle or JTE-151, followed by analysis of the tumors at the end of the experiments. Different doses of JTE-151, i.e., at 30 mg/kg, 90 mg/kg, and 120 mg/kg body weight, were tested.
FIGS. 53-56 show examples of individual experiments where tumor-bearing KP^f/fC mice was treated with either vehicle or 90 mg/kg JTE-151 for 3 weeks in regimens as specified in the figures. For example, in FIGS. 53 and 55, the mice received 90 mg/kg JTE-151 once daily for 3 weeks. In FIG. 54, the mice received 90 mg/kg JTE-151 once daily for 1 week, followed by twice daily for another 2 weeks. At the end of each experiment, tumors were analyzed for different parameters including tumor mass, cell number, EpCAM positivity, CD133 positivity, EpCAM/CD133 positivity, cellularity, and IL-17 level. […] It was not clear whether the initial tumor size of the non-responder mouse was unusually large due to variances between different mice.
Similarly, the anti-cancer effect of JTE-151 was tested on tumor-bearing KP^f/fC mice in vivo at a higher dose of 120 mg/kg (FIGS. 59-61 showing three individual experiments). For each experiment, one mouse was given vehicle treatment, and another mouse was given the JTE-151 regimen as specified in the figures. For example, in FIG. 59, the JTE-151 mouse received 120 mg/kg body weight of JTE-151 for 2 weeks and then 90 mg/kg JTE-151 for 1 week. In the first 1.5 weeks, JTE-151 was given once daily, and in the second 1.5 weeks, JTE-151 was given twice daily. As previously, at the end of each experiment, tumors were analyzed for different parameters including cell number, EpCAM positivity, EpCAM/CD133 positivity, and IL-17 level. In each of FIGS. 59-61, the horizontal axis of each graph represents the target (vehicle vs. JTE-151 mouse), and the vertical axis represents the specified measurement.

[10] = first round: JTE-151 90 mg/kg once per day for 25 days, then twice per day to day 40
[11] = third round: JTE-151 90 mg/kg once per day
[12] = 90 mg/kg JTE-151, 3 weeks, compilation (FIG. 57)
[13] = 120 mg/kg JTE-151 regimen, mice that responded

OC(c1ccc(-c2ccc(CN3CCN(Cc4ccncc4)CC3)cc2)c(F)c1)(C(F)(F)F)C(F)(F)F [SR2211]
reduction in tumor growth [1]: ~6 fold | mice alive ([2]; 25 days after the initiation of treatment): 75% | mice alive ([2]; 45 days after treatment initiation): 50% | Hazard ratio ([2]; SR2211 vs vehicle): 0.16 | median survival ([2]; treated daily from 8 weeks of age until moribund): 38.5 days | decreased risk of death ([2]; vs vehicle): 6 fold | necrosis in surrounding tissues ([3]; mouse, in vivo): no increased necrosis | large stem cell clusters ([3]; within 1 week of treatment): striking depletion | organoid growth ([4]; 3 μM or 6 μM SR2211): significantly reduced | sensitivity of organoids ([4]; acinar tumors): sensitive | sensitivity of organoids [5]: sensitive

Cc1ccc(NC(=O)C[C@H](CCC(=O)O)c2noc([C@H]3C[C@@H](CC(C)(C)C)C3)c2C2CC2)c(Cl)c1 [JTE-151, (4S)-6-[(2-chloro-4-methylphenyl)amino]-4-{4-cyclopropyl-5-[cis-3-(2,2-dimethylpropyl)cyclobutyl]isoxazol-3-yl}-6-oxohexanoic acid]
organoid growth ([6]; 3 μM JTE-151 alone): inhibited | organoid growth ([6]; 3 μM JTE-151 in combination with 0.05 nM gemcitabine): inhibited | EpCam+ tumor epithelial cells [7]: trend of decreased | EpCam+/CD133+ tumor stem cells [7]: trend of decreased | total cell counts [7]: trend of decreased | tumor mass [7]: trend of decreased | tumor volume or growth rate [7]: did not exhibit any significant difference | tumor growth rate ([8]; 3 experiments, slope compared to control (FIG. 73)): generally slower | EpCam+ tumor epithelial cells [8, 10]: lower | EpCam+/CD133+ tumor stem cells [8, 10]: lower | cell count [8, 10]: decreased | tumor growth [8, 10]: reduced | EpCam+ tumor epithelial cells [8, 11]: reduced | EpCam+/CD133+ tumor stem cells [8, 11]: reduced | EpCam+/CD133+ tumor stem cells ([9]; 30 mg/kg JTE-151 once daily for about 3 weeks (FIG. 52)): loss | mice that did not show a response ([9]; 90 mg/kg JTE-151 (FIG. 56)): 1 out of 5 | EpCam+/CD133+ tumor stem cells [9, 12]: loss | tumor mass [9, 12]: reduced | tumor mass ([9]; 90 mg/kg JTE-151, 3 weeks, individual experiments (FIGS. 53-55)): reduced | mice that responded to the drug ([9]; 120 mg/kg JTE-151 regimen (FIGS. 59-61)): At least two of the three mice | EpCam+ tumor epithelial cells [9, 13]: loss | EpCam+/CD133+ tumor stem cells [9, 13]: loss | EpCam+/CD133+ tumor stem cells ([9]; JTE-151 at either 30 mg/kg or 90 mg/kg, 3 weeks (FIG. 58)): loss
